In data set [1] the test system is RAW264.7. Description: Cytotoxicity against mouse RAW264.7 cells after 24 hrs by MTT assay. It is filed as cell-based. To be noted: raw264.7, 24 h. Background: Tetrazolium dyes change colour on reduction, which living cells bring about.
Data set [2] deals with RAW264.7. Briefly: Anti-inflammatory activity in mouse RAW264.7 cells assessed as inhibition of LPS-induced nitric oxide production preincubated for 2 hrs followed by LPS stimulation and measured after 24 hrs by Griess assay. It is filed as functional, cell-based. In general terms: Nitrite, measured by Griess reagent, commonly stands in for NO production.
In data set [3] the test system is Mus musculus. Briefly: Antiinflammatory activity against carrageenan-induced paw oedema in ICR mouse assessed as reduction in NO level in serum at 20 mg/kg, po administered 30 mins prior to carrageenan challenge after 5 hrs post carrageenan. In kind it is functional, organism-based. In general terms: The carrageenan paw model is a standard test of acute inflammation.

For data set [4], the system named is Mus musculus. Description: Antiinflammatory activity against carrageenan-induced paw oedema in ICR mouse assessed as inhibition of paw edema at 20 mg/kg, po administered 30 mins prior to carrageenan challenge after 5 hrs post carrageenan challenge. It is filed as functional, organism-based.
For data set [5], the system named is Mus musculus. Briefly: Antiinflammatory activity against carrageenan-induced paw oedema in ICR mouse assessed as inhibition of paw edema at 20 mg/kg, po administered 30 mins prior to carrageenan challenge measured at 2 hrs post carrageenan challenge relative to control. It is filed as functional.
Data set [6] has as its target Transcription factor p65 (Mus musculus) (UniProt Q04207). Description: Inhibition of LPS-induced NFkappaB p65 nuclear translocation in mouse RAW264.7 cells at 5 to 50 uM preincubated for 2 hrs followed by LPS-stimulation after 22 hrs by Western blot analysis. It is filed as cell-based.
In data set [7] the target is T1, NF-kappa-B inhibitor alpha (Mus musculus) (UniProt Q9Z1E3).
T1 sequence (whole entry): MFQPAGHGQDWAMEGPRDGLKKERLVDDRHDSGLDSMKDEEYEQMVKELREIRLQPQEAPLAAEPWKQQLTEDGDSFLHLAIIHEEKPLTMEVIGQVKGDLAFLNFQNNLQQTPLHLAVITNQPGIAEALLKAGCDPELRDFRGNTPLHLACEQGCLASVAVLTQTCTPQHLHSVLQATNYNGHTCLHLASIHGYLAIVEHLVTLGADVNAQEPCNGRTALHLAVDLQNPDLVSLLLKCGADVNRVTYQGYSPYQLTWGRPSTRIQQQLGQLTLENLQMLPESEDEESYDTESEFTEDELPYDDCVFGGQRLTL
Briefly: Inhibition of LPS-induced IKBalpha phosphorylation mouse RAW264.7 cells at 5 to 50 uM preincubated for 2 hrs followed by LPS-stimulation after 22 hrs by Western blot analysis. It is filed as cell-based.

In data set [8] the test system is RAW264.7. Briefly: Antiinflammatory activity against mouse RAW264.7 cells assessed as reduction in LPS-induced Cox2 protein expression compound preincubated for 2 hrs followed by LPS stimulation after 22 hrs by Western blot analysis. It is filed as functional, cell-based.
Data set [9] deals with RAW264.7. Briefly: Antiinflammatory activity against mouse RAW264.7 cells assessed as reduction in LPS-induced iNOS protein expression compound preincubated for 2 hrs followed by LPS stimulation after 22 hrs by Western blot analysis. It is filed as functional, cell-based.
Data set [10] has as its system RAW264.7. Description: Antiinflammatory activity against mouse RAW264.7 cells assessed as reduction in LPS-induced IL-1beta mRNA expression compound preincubated for 2 hrs followed by LPS stimulation after 22 hrs by RT-PCR analysis. It is filed as functional, cell-based.
Data set [11] deals with RAW264.7. Description: Antiinflammatory activity against mouse RAW264.7 cells assessed as reduction in LPS-induced Cox2 mRNA expression compound preincubated for 2 hrs followed by LPS stimulation after 22 hrs by RT-PCR analysis. It is filed as functional, cell-based.
Data set [12] can be described thus: Toxicity in DBA/1J mouse assessed as effect on body weight at 50 mg/kg, po. It is filed as organism-based. To be noted: in vivo.
In data set [13] the test system is RAW264.7. Description: Antiinflammatory activity against mouse RAW264.7 cells assessed as reduction in LPS-induced iNOS mRNA expression compound preincubated for 2 hrs followed by LPS stimulation after 22 hrs by RT-PCR analysis. In kind it is functional, cell-based.
Data set [14] in a line: Toxicity in DBA/1J mouse assessed as effect on behavioral changes at 50 mg/kg, po. In kind it is organism-based. To be noted: in vivo.
For data set [15], the system named is Mus musculus. Briefly: Antiarthritic activity in collagen-induced rheumatoid arthritis DBA/1J mouse model assessed as reduction in hindlimb swelling at 50 mg/kg, po. In kind it is functional, organism-based.
The test system of data set [16] is Mus musculus. Briefly: Antiarthritic activity in collagen-induced rheumatoid arthritis DBA/1J mouse model assessed as reduction in forelimb swelling at 50 mg/kg, po. It is filed as functional, organism-based.
Data set [17] relates to Mus musculus. Briefly: Antiarthritic activity in collagen-induced rheumatoid arthritis DBA/1J mouse model at 50 mg/kg, po after 22 days. It is filed as functional, organism-based.
The subject of data set [18] is Mus musculus. Briefly: Antiinflammatory activity against carrageenan-induced paw oedema in ICR mouse assessed as reduction in NO level in serum at 50 mg/kg, po administered 30 mins prior to carrageenan challenge after 5 hrs post carrageenan. In kind it is functional, organism-based.
The test system of data set [19] is Mus musculus. Briefly: Antiinflammatory activity against carrageenan-induced paw oedema in ICR mouse assessed as inhibition of paw edema at 50 mg/kg, po administered 30 mins prior to carrageenan challenge after 5 hrs post carrageenan challenge. In kind it is functional, organism-based.
Data set [20] deals with Mus musculus. Briefly: Antiinflammatory activity against carrageenan-induced paw edema in ICR mouse assessed as inhibition of paw edema at 50 mg/kg, po administered 30 mins prior to carrageenan challenge measured at 2 hrs post carrageenan challenge relative to control. In kind it is functional.
In data set [21] the test system is RAW264.7. Description: Inhibition of LPS-induced JNK phosphorylation in mouse RAW264.7 cells at 5 to 50 uM preincubated for 2 hrs followed by LPS-stimulation after 22 hrs by Western blot analysis. In kind it is cell-based.
Data set [22] addresses MAP kinase p38 (Mus musculus) (UniProt P47811+O08911+Q9WUI1+Q9Z1B7). Description: Inhibition of LPS-induced P38 phosphorylation in mouse RAW264.7 cells at 5 to 50 uM preincubated for 2 hrs followed by LPS-stimulation after 22 hrs by Western blot analysis. It is filed as cell-based.
Data set [23] relates to RAW264.7. Description: Inhibition of LPS-induced ERK phosphorylation in mouse RAW264.7 cells at 5 to 50 uM preincubated for 2 hrs followed by LPS-stimulation after 22 hrs by Western blot analysis. In kind it is cell-based.
The subject of data set [24] is RAW264.7. Description: Antiinflammatory activity against mouse RAW264.7 cells assessed as effect on LPS-induced TNF-alpha mRNA expression at 5 to 50 uM preincubated for 2 hrs followed by LPS stimulation after 22 hrs by RT-PCR analysis. In kind it is functional, cell-based.

Active and inactive are the calls of the source. The rule behind the calls is not given here. Some results are limits rather than exact numbers.

Chain of Transcription factor p65 (Mus musculus) (Q04207 whole entry): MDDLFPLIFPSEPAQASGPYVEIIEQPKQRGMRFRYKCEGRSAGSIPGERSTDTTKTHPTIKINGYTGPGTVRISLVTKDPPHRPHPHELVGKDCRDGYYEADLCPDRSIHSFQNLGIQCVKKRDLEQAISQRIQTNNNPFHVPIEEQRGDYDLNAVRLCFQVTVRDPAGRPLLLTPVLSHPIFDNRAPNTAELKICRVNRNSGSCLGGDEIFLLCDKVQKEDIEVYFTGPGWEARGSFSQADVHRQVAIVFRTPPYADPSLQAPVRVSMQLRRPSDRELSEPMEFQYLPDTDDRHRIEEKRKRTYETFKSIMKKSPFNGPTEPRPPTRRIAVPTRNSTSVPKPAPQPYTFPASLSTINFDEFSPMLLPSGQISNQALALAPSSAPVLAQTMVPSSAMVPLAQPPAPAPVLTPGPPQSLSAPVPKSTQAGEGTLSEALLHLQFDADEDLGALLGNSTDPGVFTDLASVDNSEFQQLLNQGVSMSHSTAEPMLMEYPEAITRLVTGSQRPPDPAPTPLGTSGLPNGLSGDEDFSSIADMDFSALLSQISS

With `C=CCc1ccc(O[C@@H]2O[C@H](CO)[C@@H](O)[C@H](O)[C@H]2O)c(O)c1`, the Activity entry in the data set on RAW264.7 [1] is given as “Non-Toxic”. The IC50 (in general, the point on the concentration scale where inhibition reaches its midpoint) with RAW264.7 [2] was more than 50 µM.

Take `C/C=C/c1ccc(O[C@@H]2O[C@H](CO)[C@@H](O)[C@H](O)[C@H]2O)c(O)c1`: in the data set with RAW264.7 [1], the Activity entry is recorded as “Non-Toxic”. Further, the half-maximal inhibitory concentration (IC50) with RAW264.7 [2] was 29.2 µM.

In the case of `COc1ccc2c(c1)c(CC(=O)O)c(C)n2C(=O)c1ccc(Cl)cc1` [INDOMETHACIN], the outcome with Mus musculus [3] was Active. In addition, the inhibition result in the data set with Mus musculus [4] was “Active”. For the same compound, the inhibition in vivo (in general, the share of the control response that was lost under treatment) at 20 mg/kg in the data set with Mus musculus [5] is 26.5%.

For the compound `C=CCc1ccc(O[C@@H]2O[C@H](COC(=O)c3cc(O)c(O)c(O)c3)[C@H]3OC(=O)c4cc(O)c(O)c(O)c4-c4c(cc(O)c(O)c4O)C(=O)O[C@@H]3[C@H]2O)c(O)c1`, the Activity result in the data set with RAW264.7 [1] was “Non-Toxic”. The IC50 with RAW264.7 [2] came to 3.9 µM.

With `C/C=C/c1ccc(O[C@@H]2O[C@H](CO[C@@H]3O[C@@H](C)[C@@H]4OC(=O)c5cc(O)c(O)c(O)c5-c5c(cc(O)c(O)c5O)C(=O)O[C@H]4[C@H]3O)[C@H]3OC(=O)c4cc(O)c(O)c(O)c4-c4c(cc(O)c(O)c4O)C(=O)O[C@@H]3[C@H]2O)cc1`, the Activity entry with RAW264.7 [1] is “Non-Toxic”. Also, the concentration for half-maximal inhibition (IC50) in the data set with RAW264.7 [2] is 3.6 µM.

For `C=CCc1ccc(O[C@@H]2O[C@H](CO)[C@@H](O)[C@H](O)[C@H]2O)cc1`, in the data set on RAW264.7 [1], the Activity entry was “Non-Toxic”. The IC50 in the data set with RAW264.7 [2] is more than 50 µM.

`C/C=C/c1ccc(O[C@@H]2O[C@H](CO)[C@H]3OC(=O)c4cc(O)c(O)c(O)c4-c4c(cc(O)c(O)c4O)C(=O)O[C@@H]3[C@H]2O)cc1`: the Activity result in the data set on RAW264.7 [1] was “Non-Toxic”. The half-maximal inhibitory concentration (IC50) in the data set on RAW264.7 [2] amounted to 8.2 µM.

As to `C=CCc1ccc(O[C@@H]2O[C@H](CO[C@@H]3O[C@@H](C)[C@@H]4OC(=O)c5cc(O)c(O)c(O)c5-c5c(cc(O)c(O)c5O)C(=O)O[C@H]4[C@H]3O)[C@H]3OC(=O)c4cc(O)c(O)c(O)c4-c4c(cc(O)c(O)c4O)C(=O)O[C@@H]3[C@H]2O)cc1`, the inhibition entry (in data set [6]; in data set [7]; in the data set on Mus musculus [19]) was “Active” throughout. Also, the Activity result was “Dose-dependent effect” in the data set on RAW264.7 [8]; “Dose-dependent effect” in the data set on RAW264.7 [9]; “Dose-dependent effect” in the data set on RAW264.7 [10]; “Dose-dependent effect” in the data set with RAW264.7 [11]; “Non-Toxic” in data set [12]; “Dose-dependent effect” with RAW264.7 [13]. Moreover, the Activity entry (in data set [14]; with RAW264.7 [1]) was “Non-Toxic” throughout. The result in the data set with Mus musculus [15], with Mus musculus [16], in the data set with Mus musculus [17] and in the data set with Mus musculus [18] was Active. Further, the inhibition in vivo at 50 mg/kg in the data set with Mus musculus [20] came out at 26.9%. In addition, the IC50 in the data set with RAW264.7 [2] was found to be 1.9 µM. Moreover, the inhibition entry (in the data set with RAW264.7 [21]; in data set [22]; in the data set on RAW264.7 [23]) was “inactive” in each case. In the data set with RAW264.7 [24], the outcome was inactive.

In the case of `C/C=C/c1ccc(O[C@@H]2O[C@H](CO)[C@H]3OC(=O)c4cc(O)c(O)c(O)c4-c4c(cc(O)c(O)c4O)C(=O)O[C@@H]3[C@H]2O)c(O)c1`, the Activity result with RAW264.7 [1] was “Non-Toxic”. Also, the IC50 with RAW264.7 [2] amounted to 2.1 µM.

For `C=CCc1ccc(O[C@@H]2O[C@H](CO)[C@H]3OC(=O)c4cc(O)c(O)c(O)c4-c4c(cc(O)c(O)c4O)C(=O)O[C@@H]3[C@H]2O)cc1`, in the data set with RAW264.7 [1], the Activity entry is reported as “Non-Toxic”. Further, the IC50 in the data set on RAW264.7 [2] was determined as 4.3 µM.

Consider `C=CCc1ccc(O[C@@H]2O[C@H](CO)[C@H]3OC(=O)c4cc(O)c(O)c(O)c4-c4c(cc(O)c(O)c4O)C(=O)O[C@@H]3[C@H]2O)c(O)c1`, for which the Activity entry in the data set with RAW264.7 [1] is “Non-Toxic”. Also, the IC50 in the data set with RAW264.7 [2] is 4.1 µM.

As for `C/C=C/c1ccc(O[C@@H]2O[C@H](CO)[C@@H](O)[C@H](O)[C@H]2O)cc1`, the Activity entry in the data set with RAW264.7 [1] is “Non-Toxic”. For the same compound, the IC50 in the data set on RAW264.7 [2] is more than 50 µM.

Turning to `O=C(O)c1cc(O)c(O)c(O)c1` [GALLIC ACID], the Activity entry with RAW264.7 [1] is on record as “Non-Toxic”. Also, the 50% inhibitory concentration (IC50) with RAW264.7 [2] is more than 50 µM.

Turning to `O=c1cc(-c2ccc(O)c(O)c2)oc2cc(O)cc(O)c12` [LUTEOLIN], in the data set with RAW264.7 [1], the Activity result was “Non-Toxic”. In the data set on RAW264.7 [2], the IC50 is 5.8 µM.

For the compound `O=c1oc2c(O)c(O)cc3c(=O)oc4c(O)c(O)cc1c4c23` [ELLAGIC ACID], the Activity entry in the data set with RAW264.7 [1] is “Non-Toxic”. For the same compound, the IC50 in the data set with RAW264.7 [2] is more than 50 µM.

Source of the values: ChEMBL document CHEMBL4334480, “Anti-inflammatory Ellagitannins from Cleidion brevipetiolatum for the Treatment of Rheumatoid Arthritis” (J Nat Prod, 2019).
